Measurements from patent US20230124492A1, “COMPOSITIONS AND METHODS FOR SUBSTITUTED 7-(PIPERAZIN-1-YL)PYRAZOLO[1,5-A]PYRIMIDINE ANALOGS AS INHIBITORS OF KRAS” (The Board of Regents of the University of Texas System, priority 2019, published 2023).

Assays:
[1] = molecular target: T1, G12D KRAS (Homo sapiens, UniProt P01116, G12D); assay: Intrinsic fluorescence (IF) binding affinity, G12D KRAS bound to GNP
Description: (§1) FIGS. 2A-I illustrates the measurements of binding affinity of ligands to wild type (WT) or G120 KRAS bound to the GTP analogue GNP and, for selected exemplary embodiments, effect of ligands on the rate of SOS-mediated nucleotide exchange reaction. Binding affinity was determined using intrinsic fluorescence, which made use of the ligands' intrinsic fluorescence and the accompanying change (decrease or increase in intensity) upon binding to KRAS.
as §1, with “G12D” for “G120”, “reaction,” for “reaction.”
(§2) Solutions of ligand (0 to 50 μM) are mixed with equal volumes of KRAS (fixed concentration) and fluorescence spectra are obtained. The difference spectra (between KRAS-ligand mixture and ligand alone) are plotted and the area under the curve is obtained. Kd is estimated from the plot of area versus the ligand concentration. SOS-mediated nucleotide rate was monitored using the fluorescence intensity increase of BODIPY-GTP (B GTP) as it displaces GDP from KRAS. The reaction mixture (100 μL, 96 well plate) contained 0.5 μM K-Ras-GDP, 0.5 μm B-GTP, 0.5 μM SOS and varying concentrations of ligands (0 to 25 μM). B-GTP and SOS mixture was added just before measurements(excitation: 485 nm, emission: 510 nm; TECAN Infinite 200 plate reader). The reaction was monitored for 1 hour. The experiments were conducted with minimal light, Fluorescence intensities were normalized with respect to the value obtained at 120 s and the traces were fit with exponential function (Igor Pro, Wavemetrics).
(§3) Note: For FIGS. 1A-H 1 (as well as one of the curves in FIGS. 2A-I), dissociation constant (Kd) was determined using either Microscale Thermophoresis (MST) or Intrinsic Fluorescence (IF) assay. MST assay uses fluorescence to monitor movement of molecules in response to temperature gradient created by infrared laser.

[2] = molecular target: T1, G12D KRAS; assay: Microscale thermophoresis (MST) Kd, G12D KRAS; format: binding
Description: (§4) Measurement of compound binding affinity to KKRAS using microscale thermophoresis (MST). MST is based on the movement of molecules in response to temperature gradient. […] KRAS was buffer-exchanged in the labeling buffer (40 mM HEPES, pH 7.5, 5 mM MgCl2, and 500 mM NaCl) using a spin column (provided in the kit) The concentration of the eluted protein was adjusted (10 to 20 μM) and 2-3 fold concentration of the dye (in labeling buffer) was added (200 μL final volume), The solution was incubated for 30 minutes at room temperature in the dark. Labeled KRAS was purified using the column provided in the kit or MST measurements, 16 point serial dilutions of ligands were made in MST Assay Buffer (40 mM HEPES, pH 7.5, 5 mM MgCl2, 100 mM NaCl+0.05% Tween-20+2-4% DMSO) and added to 100 nM KRAS. The solutions were loaded in capillaries and measurements were done using 20% LED power and 40% MST power. The data were fit in Igor Pro using Hill equation or the function in the instrument software.
(§5) Microscale thermophoresis (MST) assays were used to measure the affinity of lead compound analogs for KRAS. In a typical experiment, 100 nM KRAS labeled with a dye amine-reactive red NT-647 from NanoTemper) was mixed with different concentrations of ligand and incubated in a binding buffer (40 mM HEPES, pH 7.5, 5 mM MgCl2, 150 mM NaCl, 0.05% polysorbate 20, and 2% DMSO) at room temperature for 10 min before being loaded into a capillary. Thermophoresis is carried out and dissociation constant calculated by monitoring changes in fluorescence intensity. A monolith NT.115 Reader from NanoTemper can be used for MST experiments, with 40% MST and 20% LED power.
as §3

[3] = molecular target: T2, WT KRAS (Homo sapiens, UniProt P01116); assay: Intrinsic nucleotide exchange assay, WT KRAS; format: biochemical; details: for EC50: intrinsic nucleotide exchange, dose-response; for Intrinsic nucleotide exchange WT, single-dose test (effect / No effect): 25 microMolar ligand
Description: (§6) In other experiments, the compounds disclosed herein can be tested for their abilities to affect rates of intrinsic and SOS-catalyzed nucleotide exchange and release. These assays use fluorescently-labeled BODIPY-GDP (BGDP) and BODIPY-GTP (BGTP), which have increased fluorescence intensity when bound to KRAS. Rate of nucleotide exchange is determined by rate of increase in fluorescence after BGTP is added to GDP-KRAS in the absence or presence of SOS Rate of nucleotide release is determined from rate of decrease in, fluorescence when excess GTP is added to KRAS loaded with BGDP in the presence or absence of SOS, where SOS is “Sons of Sevenless” referring to a set of genes encoding guanine nucleotide exchange factors.

[4] = molecular target: T2, WT KRAS; assay: SOS-mediated nucleotide exchange assay, WT KRAS; format: biochemical; details: for EC50: SOS-mediated nucleotide exchange, dose-response; for SOS-mediated nucleotide exchange WT, single-dose test (effect / No effect): 25 microMolar ligand
Description: as §6, §2

[5] = molecular target: wild type (WT) KRAS (Homo sapiens, UniProt P01116); assay: Intrinsic fluorescence (IF) binding affinity, WT KRAS bound to GNP
Description: as §1
as §1, with “G12D” for “G120”, “reaction,” for “reaction.”
as §2, §3

[6] = molecular target: KRAS (Homo sapiens, UniProt P01116, G12D); assay: Microscale thermophoresis (MST) binding affinity to KRAS (Table 1); details: 100 nM labeled KRAS, read-out: kD (dissociation constant)
Description: as §4, §5
Dissociation constants (IQ)) calculated from the thermophoresis results of selected compounds according to the present disclosure are presented in Table 1 below.
as §3

T1 sequence (P01116 1-188 isoform P01116-2 G12D): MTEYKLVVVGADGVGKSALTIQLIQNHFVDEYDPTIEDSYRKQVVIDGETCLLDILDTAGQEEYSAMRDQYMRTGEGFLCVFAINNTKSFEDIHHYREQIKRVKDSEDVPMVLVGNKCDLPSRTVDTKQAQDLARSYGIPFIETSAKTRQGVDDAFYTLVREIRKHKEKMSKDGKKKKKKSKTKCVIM
T2 sequence (P01116 1-188 isoform P01116-2): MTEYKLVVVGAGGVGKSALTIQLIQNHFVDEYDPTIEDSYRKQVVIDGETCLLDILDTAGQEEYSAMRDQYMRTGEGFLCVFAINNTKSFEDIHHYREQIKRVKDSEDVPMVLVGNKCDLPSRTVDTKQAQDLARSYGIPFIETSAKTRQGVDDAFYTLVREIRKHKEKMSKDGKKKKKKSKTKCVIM
wild type (WT) KRAS, sequence (P01116 1-188 isoform P01116-2): as above
KRAS, sequence (P01116 whole entry G12D): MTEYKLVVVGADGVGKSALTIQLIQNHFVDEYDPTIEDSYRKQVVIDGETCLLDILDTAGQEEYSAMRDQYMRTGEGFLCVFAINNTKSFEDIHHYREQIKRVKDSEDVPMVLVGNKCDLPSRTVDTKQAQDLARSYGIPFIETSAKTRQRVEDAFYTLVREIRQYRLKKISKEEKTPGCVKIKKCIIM

Row | Structure (SMILES) | Kd [1] [µM] | Kd [5] [µM] | SOS-mediated nucleotide exchange WT, single-dose test (effect / No effect) [4] | other results
1 | Cc1nn2c(N3CCN(CCO)CC3)cc(-c3ccccc3)nc2c1-c1ccccc1 [C11″] | 4.54 ± 0.1 |  |  | Kd [2]: 0.87 ± 0.1 µM
2 | Cc1cc(N2CCN(CCO)CC2)n2nc(C)c(-c3ccccc3)c2n1 [C13″] |  |  |  | EC50 [3]: 28.8 ± 4 µM; EC50 [4]: 57.8 ± 4 µM
3 | OCCN1CCN(c2cc(-c3ccccc3)nc3c(-c4ccccc4)c(-c4ccccc4)nn23)CC1 [C14″] | 11.2 ± 0.2 | 12.3 ± 0.1 |  | EC50 [3]: 12.4 ± 4.8 µM; Kd [2]: 0.88 ± 0.4 µM
4 | COCCN1CCN(c2cc(-c3ccccc3)nc3c(-c4ccccc4)c(C)nn23)CC1 [C17″] |  |  |  | Kd [2]: > 76 µM
5 | Cc1nn2c(N3CCN(CCO)CC3)cc(-c3ccc(F)cc3)nc2c1-c1ccccc1 [C21″] | 6.8 ± 0.5 | 4.6 ± 0.2 |  | EC50 [3]: 34 ± 6.4 µM; EC50 [4]: 18.8 ± 3.3 µM; Kd [2]: 0.52 ± 0.2 µM
6 | Cc1nn2c(N3CCN(CCO)CC3)cc(-c3ccncc3)nc2c1-c1ccccc1 [C22″] |  |  | no effect in single dose @ 25 uM | Kd [2]: > 100 µM
7 | Cc1nn2c(N3CCN(CCO)CC3)cc(-c3nccn3C)nc2c1-c1ccccc1 [C23″] |  |  | effect in single- dose @ 25 uM | Intrinsic nucleotide exchange WT, single-dose test (effect / No effect) [3]: effect in single- dose @ 25 uM; Kd [2]: > 200 µM
8 | COc1ccc(-c2cc(N3CCN(CCO)CC3)n3nc(C)c(-c4ccccc4)c3n2)cc1 [C25″] |  |  | effect in single- dose @ 25 uM | 
9 | CCc1nn2c(N3CCN(CCO)CC3)cc(-c3ccccc3)nc2c1-c1ccccc1 [C26″] |  |  | effect in single- dose @ 25 uM | Intrinsic nucleotide exchange WT, single-dose test (effect / No effect) [3]: effect in single- dose @ 25 uM
10 | CCOC(=O)N1CCN(c2cc(-c3ccccc3)nc3c(-c4ccccc4)c(C)nn23)CC1 [C27″] |  |  | no effect in single dose @ 25 uM | 
11 | Cc1nn2c(N3CCN(CCO)CC3)cc(-c3ccccc3)nc2c1-c1cc(F)cc(F)c1 [C28″] | 23.5 ± 0.8 | 21.7 ± 0.4 | No effect in single dose @ 25 uM | Intrinsic nucleotide exchange WT, single-dose test (effect / No effect) [3]: effect in single- dose @ 25 uM
12 | OCCN1CCN(c2cc(-c3ccccc3)nc3c(-c4ccccc4)c(C4CC4)nn23)CC1 [C29″] |  |  | effect in single- dose @ 25 uM | 
13 | Cc1nn2c(N3CCN(CCO)CC3)cc(-c3ccc(O)cc3)nc2c1-c1ccccc1 [C30″] | 18.4 ± 10 | 12.2 ± 0.4 |  | EC50 [4]: 15.9 ± 3.4 µM
14 | Cc1nn2c(N3CCN(CCO)CC3)cc(-c3ccccc3)nc2c1-c1ccc(O)cc1 [C31″] |  |  | No effect in single dose @ 25 uM | Intrinsic nucleotide exchange WT, single-dose test (effect / No effect) [3]: No effect in single dose @ 25 uM
15 | OCCN1CCN(c2cc(-c3ccccc3)nc3c(-c4ccccc4)c(C(F)(F)F)nn23)CC1 [C32″] |  |  | effect in single- dose @ 25 uM | Intrinsic nucleotide exchange WT, single-dose test (effect / No effect) [3]: effect in single- dose @ 25 uM
16 | Cc1nn2c(N3CCN(CCO)CC3)cc(-c3cc(F)cc(F)c3)nc2c1-c1ccccc1 [C33″] | 79 ± 78 |  | No effect in single dose @ 25 uM | Intrinsic nucleotide exchange WT, single-dose test (effect / No effect) [3]: effect in single- dose @ 25 uM
17 | Cc1nn2c(N3CCN(CCO)CC3)cc(-c3cc(O)cc(O)c3)nc2c1-c1ccccc1 [C35″] | 21.6 ± 4 | 8.4 ± 0.2 | No effect in single dose @ 25 uM | Intrinsic nucleotide exchange WT, single-dose test (effect / No effect) [3]: effect in single- dose @ 25 uM

Row | Structure (SMILES) | Kd [1] [µM] | Kd [5] [µM] | SOS-mediated nucleotide exchange WT, single-dose test (effect / No effect) [4] | other results
18 | OCCN1CCN(c2cc(-c3ccccc3)nc3c(-c4ccccc4)c(-c4ccccc4)nn23)CC1 [Compound C3] |  |  |  | Kd [6]: 0.88 ± 0.36 µM
19 | Cc1nn2c(NCCN(C)C)cc(-c3ccccc3)nc2c1-c1ccccc1 [Compound C4] |  |  |  | Kd [6]: 0.99 ± 0.14 µM
20 | COCCN1CCN(c2cc(-c3ccccc3)nc3c(-c4ccccc4)c(C)nn23)CC1 [Compound C6] |  |  |  | Kd [6]: > 76 µM
21 | COc1ccccc1N1CCN(c2cc(-c3ccccc3)nc3c(-c4ccccc4)c(C)nn23)CC1 [Compound C7] |  |  |  | Kd [6]: > 86 µM
22 | Cc1nn2c(NCCN(C)C)cc(-c3ccccc3)nc2c1-c1ccccc1 [Compound C15] |  |  |  | Kd [2]: 0.99 ± 0.1 µM
23 | Cc1cc(NCCN(C)C)n2nc(C)c(-c3ccccc3)c2n1 [Compound C16] |  |  |  | Kd [2]: > 200 µM
24 | COc1ccccc1N1CCN(c2cc(-c3ccccc3)nc3c(-c4ccccc4)c(C)nn23)CC1 [Compound C18] |  |  |  | Kd [2]: > 86 µM
25 | OCCN1CCN(c2cc(-c3ccccc3)nc3c(-c4ccccc4)c(-c4cc[nH]c4)nn23)CC1 [Compound C36] | 22.4 ± 8 | 20.6 ± 0.4 |  | 
26 | COc1ccc(-c2nn3c(N4CCN(CCO)CC4)cc(-c4ccccc4)nc3c2-c2ccccc2)cc1 [Compound C37] | 11.8 ± 0.2 | 22.6 ± 0.3 |  | 
27 | OCCN1CCN(c2cc(-c3ccccc3)nc3c(-c4ccccc4)c(-c4ccc(O)cc4)nn23)CC1 [Compound C38] | 63.1 ± 5.3 | 19.1 ± 0.1 |  | 
28 | Cc1nn2c(N3CCC(CCO)CC3)cc(-c3ccc(F)cc3)nc2c1-c1ccccc1 [Compound C39] | 22.9 ± 2.2 | 39.5 ± 1.9 |  | 
29 | Cc1nn2c(N3CCC(CCO)CC3)cc(-c3ccccc3)nc2c1-c1ccccc1 [Compound C40] | 25.7 ± 0.2 | 63.1 ± 5.3 |  | 
30 | Cc1nn2c(N3CCN(CCO)CC3)nc(-c3ccccc3)nc2c1-c1ccccc1 [Compound C41] |  | ~20 |  | EC50 [3]: 15 to 25 µM
31 | COCc1nn2c(N3CCN(CCO)CC3)cc(-c3ccccc3)nc2c1-c1ccccc1 [Compound C43] |  | 5 to 15 |  | 
32 | Cc1cc2nc(-c3ccccc3)cc(N3CCN(CCO)CC3)n2n1 [Compound C44] |  | 5 to 15 |  | 
33 | Cc1nn2c(NCCCN(C)C)cc(-c3ccccc3)nc2c1-c1ccccc1 [Compound C45] |  | 28.3 ± 5.4 |  | 
